Data reported in patent publication US7105173B1, “Nicotine replacement applique” (priority 2002, dated 2006).

Columns and labels:
[1] = cited from earlier work

SMILES: CN1CCCC1c1cccnc1 (centres unmarked) [nicotine]
- LD50 oral level [1]: approximately 55 milligrams per Kilogram of body weight
- LD50 oral level expressed as total amount for a small infant: about 250 mg
